{"source": "paper PMC8533299", "about": "“Synthesis, In Silico Study, and Anti-Cancer Activity of Thiosemicarbazone Derivatives” (Biomedicines, 2021)", "key": {"[1]": {"system": "MCF-7 (Human breast cancer)", "experiment": "MTT test on MCF-7 cells", "assay_type": "cell-based", "settings": "MCF7, till 48 h", "protocol": "(§1) The in vitro anticancer activities of the synthesized compounds were conducted using different cancerous and non-cancerous cell lines viz B16-F0 (Mouse melanoma), mouse Ehrlich Ascites Carcinoma (EAC), MCF-7 (Human breast cancer), MCF-10A (Human breast epithelial cells), and NIH/3T3 (Mouse fibroblast cells). All cell lines were procured from the National Centre for Cell Science, Pune, India. The procured cells were cultured in a six-well culture plate with Dulbecco’s Modified Eagle’s Medium (DMEM) supplemented with 10% fetal bovine serum in a humid CO2 incubator with 5% carbon dioxide at 37 °C.\n(§2) The anti-cancer effect and cytotoxicity of both 3-MBTSc and 4-NBTSc compounds were evaluated against different cancerous (MCF-7, EAC, B16-F0 cells) and noncancerous cells (MCF-10A, NIH-3T3 cells) using MTT test. In brief, the stock solutions of both the tested compounds were prepared by dissolving 1 mg of each compound in 1 mL of DMSO separately. Then, four different concentrations (5, 10, 12, and 20 µg/mL) of both compounds were used during the test along with the negative control. Also, 10 μg/mL of doxorubicin (Dox) was used as the positive control during the experiment. Both untreated and treated cells were incubated for next 24 and 48 h. Then, all the steps during the whole experiment were carried out by our earlier reported procedure. Later, the absorbance values were measured by an ELISA reader (Biorad, Hercules, CA, USA) at 570 nm wavelength using secondary wavelength as a reference at 620 nm and the percentages of cell viability was calculated using the following formula [59, 60, 61]. Cell viability (%)= Mean absorbance of treated cells/Mean absorbance of untreated cells × 100\n(§3) Based on the cell viability data, the IC50 values of both compounds were calculated on different cancer cells by plotting their corresponding dose-responsive graphs.\n(§4) The obtained data were statistically analyzed. The descriptive analysis was done and the IC50 values were calculated by fitting the sigmoidal dose responsive graph using GraphPad Prism (GraphPad Software, Inc., La Jolla, CA, USA). […]"}, "[2]": {"system": "mouse Ehrlich Ascites Carcinoma (EAC)", "experiment": "MTT test on EAC cells", "assay_type": "cell-based", "protocol": "as §1, §2, §3, §4"}, "[3]": {"experiment": "MTT cytotoxicity test on NIH-3T3 cells", "assay_type": "cell-based, Mouse", "settings": "mouse, NIH/3T3 fibroblast cells", "protocol": "as §1, §2"}, "[4]": {"system": "NIH/3T3 (Mouse fibroblast cells)", "experiment": "MTT cytotoxicity test on NIH-3T3 cells", "assay_type": "cell-based", "settings": "48 h", "protocol": "as §1, §2"}, "[5]": {"experiment": "MTT cytotoxicity test on MCF-10A cells", "assay_type": "cell-based, Human", "settings": "human, MCF-10A breast epithelial cells", "protocol": "as §1, §2"}, "[6]": {"system": "MCF-10A (Human breast epithelial cells)", "experiment": "MTT cytotoxicity test on MCF-10A cells", "assay_type": "cell-based", "settings": "48 h", "protocol": "as §1, §2"}, "[7]": {"system": "gene expression in EAC cells", "experiment": "RT-qPCR gene expression in EAC cells", "assay_type": "cell-based, mouse", "protocol": "(§5) Total mRNA was isolated and extracted by Trizol reagent as described in an earlier method. RevertAid First Strand cDNA synthesis kit (Thermo Fisher Scientific, Waltham, MA, USA) was used to synthesize cDNA in a total reaction volume of 20 μL containing oligo-dT primers, RiboLock RNase inhibitor, and reverse transcriptase. Gene-specific primers were used to amplify cDNAs in RT-qPCR machine (Applied Biosystems, Waltham, MA, USA)."}, "[8]": {"system": "gene expression in MCF-7 human breast cancer cells", "experiment": "RT-qPCR gene expression in MCF-7 cells", "assay_type": "cell-based", "protocol": "as §5"}, "B16-F0 (Mouse melanoma)": {"system": "B16-F0 (Mouse melanoma)", "experiment": "MTT test on B16-F0 cells", "assay_type": "cell-based", "protocol": "as §1, §2, §3, §4"}, "[9]": {"settings": "EAC cells treated, GAPDH housekeeping gene"}, "[10]": {"settings": "EAC cells, difference of RQ values"}, "[11]": {"settings": "MCF-7 cells treated, GAPDH housekeeping gene"}, "[12]": {"settings": "MCF-7 cells, difference of RQ values"}}}
{"smiles": "COc1cccc(C=NNC(N)=S)c1", "note": "[3-MBTSc, 3-Methoxybenzaldehyde thiosemicarbazone]", "values": [{"measurement": "IC50", "setting": "[1]", "result": "2.821 ± 0.008", "unit": "µg/mL"}, {"measurement": "inhibition of cell growth", "setting": "[2]; EAC cell line, MTT assay", "result": 50.31, "unit": "%"}, {"measurement": "IC50", "setting": "[2]; Mus musculus, Ehrlich, EAC cells, MTT, till 48 h", "result": "3.355 ± 0.012", "unit": "µg/mL"}, {"measurement": "viability at 48 h", "setting": "[3]", "result": "> 80", "unit": "%"}, {"measurement": "toxicity", "setting": "[4]", "result": "less than 20%"}, {"measurement": "viability at 48 h", "setting": "[5]", "result": "> 80", "unit": "%"}, {"measurement": "toxicity", "setting": "[6]", "result": "less than 20%"}, {"measurement": "BCl2 Treated (RQ value)", "setting": "[7]; [9]", "result": "7.195 ± 0.021"}, {"measurement": "BRCA1 Treated (RQ value)", "setting": "[7]; [9]", "result": "4.305 ± 0.021"}, {"measurement": "Bax Treated (RQ value)", "setting": "[7]; [9]", "result": "5.195 ± 0.021"}, {"measurement": "Caspase-3 Treated (RQ value)", "setting": "[7]; [9]", "result": "3.095 ± 0.035"}, {"measurement": "Dmp1 Treated (RQ value)", "setting": "[7]; [9]", "result": "6.9 ± 0.028"}, {"measurement": "Fos Treated (RQ value)", "setting": "[7]; [9]", "result": "4.22 ± 0.014"}, {"measurement": "MTS 1 Treated (RQ value)", "setting": "[7]; [9]", "result": "1.1 ± 0.028"}, {"measurement": "Mdm2 Treated (RQ value)", "setting": "[7]; [9]", "result": "4.145 ± 0.035"}, {"measurement": "PKC Treated (RQ value)", "setting": "[7]; [9]", "result": "7.105 ± 0.021"}, {"measurement": "PTEN Treated (RQ value)", "setting": "[7]; [9]", "result": "4.205 ± 0.035"}, {"measurement": "RAS Treated (RQ value)", "setting": "[7]; [9]", "result": "3.215 ± 0.021"}, {"measurement": "p19 Arf Treated (RQ value)", "setting": "[7]; [9]", "result": "4.73 ± 0.028"}, {"measurement": "p21 Treated (RQ value)", "setting": "[7]; [9]", "result": "5.19 ± 0.028"}, {"measurement": "pRB Treated (RQ value)", "setting": "[7]; [9]", "result": "3.575 ± 0.021"}, {"measurement": "BCl2 Fold Change (EAC treated-EAC untreated)", "setting": "[7]; [10]", "result": 4.105, "unit": "fold"}, {"measurement": "BRCA1 Fold Change (EAC treated-EAC untreated)", "setting": "[7]; [10]", "result": 2.245, "unit": "fold"}, {"measurement": "Bax Fold Change (EAC treated-EAC untreated)", "setting": "[7]; [10]", "result": 2.145, "unit": "fold"}, {"measurement": "Caspase-3 Fold Change (EAC treated-EAC untreated)", "setting": "[7]; [10]", "result": 0.195, "unit": "fold"}, {"measurement": "Dmp1 Fold Change (EAC treated-EAC untreated)", "setting": "[7]; [10]", "result": 4.75, "unit": "fold"}, {"measurement": "Fos Fold Change (EAC treated-EAC untreated)", "setting": "[7]; [10]", "result": -3.92, "unit": "fold"}, {"measurement": "MTS 1 Fold Change (EAC treated-EAC untreated)", "setting": "[7]; [10]", "result": -0.805, "unit": "fold"}, {"measurement": "Mdm2 Fold Change (EAC treated-EAC untreated)", "setting": "[7]; [10]", "result": -1.06, "unit": "fold"}, {"measurement": "PKC Fold Change (EAC treated-EAC untreated)", "setting": "[7]; [10]", "result": -3.03, "unit": "fold"}, {"measurement": "PTEN Fold Change (EAC treated-EAC untreated)", "setting": "[7]; [10]", "result": 2.975, "unit": "fold"}, {"measurement": "RAS Fold Change (EAC treated-EAC untreated)", "setting": "[7]; [10]", "result": -3.725, "unit": "fold"}, {"measurement": "p19 Arf Fold Change (EAC treated-EAC untreated)", "setting": "[7]; [10]", "result": 1.98, "unit": "fold"}, {"measurement": "p21 Fold Change (EAC treated-EAC untreated)", "setting": "[7]; [10]", "result": 4.195, "unit": "fold"}, {"measurement": "p53 Fold Change (EAC treated-EAC untreated)", "setting": "[7]; [10]", "result": 2.1, "unit": "fold"}, {"measurement": "pRB Fold Change (EAC treated-EAC untreated)", "setting": "[7]; [10]", "result": 1.67, "unit": "fold"}, {"measurement": "BCl2 Treated (RQ value)", "setting": "[8]; [11]", "result": "2.375 ± 0.025"}, {"measurement": "BRCA1 Treated (RQ value)", "setting": "[8]; [11]", "result": "7.13 ± 0.01"}, {"measurement": "BRCA2 Treated (RQ value)", "setting": "[8]; [11]", "result": "1.235 ± 0.005"}, {"measurement": "Bax Treated (RQ value)", "setting": "[8]; [11]", "result": "2.125 ± 0.025"}, {"measurement": "Caspase-3 Treated (RQ value)", "setting": "[8]; [11]", "result": "2.13 ± 0.01"}, {"measurement": "Dmp1 Treated (RQ value)", "setting": "[8]; [11]", "result": "2.1 ± 0.03"}, {"measurement": "ER Treated (RQ value)", "setting": "[8]; [11]", "result": "3.15 ± 0.03"}, {"measurement": "Hdm2 Treated (RQ value)", "setting": "[8]; [11]", "result": "5.26 ± 0.045"}, {"measurement": "Myc Treated (RQ value)", "setting": "[8]; [11]", "result": "3.43 ± 0.015"}, {"measurement": "PKC Treated (RQ value)", "setting": "[8]; [11]", "result": "5.455 ± 0.015"}, {"measurement": "PR Treated (RQ value)", "setting": "[8]; [11]", "result": "1.23 ± 0.02"}, {"measurement": "PTEN Treated (RQ value)", "setting": "[8]; [11]", "result": "3.78 ± 0.02"}, {"measurement": "RAS Treated (RQ value)", "setting": "[8]; [11]", "result": "3.905 ± 0.035"}, {"measurement": "p19 Arf Treated (RQ value)", "setting": "[8]; [11]", "result": "4.575 ± 0.055"}, {"measurement": "p21 Treated (RQ value)", "setting": "[8]; [11]", "result": "3.125 ± 0.025"}, {"measurement": "p53 Treated (RQ value)", "setting": "[8]; [11]", "result": "5.185 ± 0.015"}, {"measurement": "pRB Treated (RQ value)", "setting": "[8]; [11]", "result": "3.11 ± 0.01"}, {"measurement": "BCl2 Fold Change (MCF 7 treated-MCF 7 untreated)", "setting": "[8]; [12]", "result": 0.285, "unit": "fold"}, {"measurement": "BRCA1 Fold Change (MCF 7 treated-MCF 7 untreated)", "setting": "[8]; [12]", "result": 5.33, "unit": "fold"}, {"measurement": "BRCA2 Fold Change (MCF 7 treated-MCF 7 untreated)", "setting": "[8]; [12]", "result": -0.7, "unit": "fold"}, {"measurement": "Bax Fold Change (MCF 7 treated-MCF 7 untreated)", "setting": "[8]; [12]", "result": 1.4, "unit": "fold"}, {"measurement": "Caspase-3 Fold Change (MCF 7 treated-MCF 7 untreated)", "setting": "[8]; [12]", "result": 1.53, "unit": "fold"}, {"measurement": "Hdm2 Fold Change (MCF 7 treated-MCF 7 untreated)", "setting": "[8]; [12]", "result": -1.98, "unit": "fold"}, {"measurement": "Myc Fold Change (MCF 7 treated-MCF 7 untreated)", "setting": "[8]; [12]", "result": -4.02, "unit": "fold"}, {"measurement": "PKC Fold Change (MCF 7 treated-MCF 7 untreated)", "setting": "[8]; [12]", "result": -7.64, "unit": "fold"}, {"measurement": "PR Fold Change (MCF 7 treated-MCF 7 untreated)", "setting": "[8]; [12]", "result": 0.035, "unit": "fold"}, {"measurement": "PTEN Fold Change (MCF 7 treated-MCF 7 untreated)", "setting": "[8]; [12]", "result": 1.635, "unit": "fold"}, {"measurement": "RAS Fold Change (MCF 7 treated-MCF 7 untreated)", "setting": "[8]; [12]", "result": "−5.92", "unit": "fold"}, {"measurement": "p19 Arf Fold Change (MCF 7 treated-MCF 7 untreated)", "setting": "[8]; [12]", "result": 3.24, "unit": "fold"}, {"measurement": "p21 Fold Change (MCF 7 treated-MCF 7 untreated)", "setting": "[8]; [12]", "result": 0.935, "unit": "fold"}, {"measurement": "p53 Fold Change (MCF 7 treated-MCF 7 untreated)", "setting": "[8]; [12]", "result": 3.025, "unit": "fold"}, {"measurement": "pRB Fold Change (MCF 7 treated-MCF 7 untreated)", "setting": "[8]; [12]", "result": 1.51, "unit": "fold"}, {"measurement": "inhibition of cell growth", "setting": "B16-F0 (Mouse melanoma); B16-F0 cell line, MTT assay", "result": 50.42, "unit": "%"}, {"measurement": "IC50", "setting": "B16-F0 (Mouse melanoma); Mus musculus, B16F0, B16-F0 cells, MTT, till 48 h", "result": "2.904 ± 0.013", "unit": "µg/mL"}]}
